Measurements from patent US10143681B2, “Factor XIa inhibitors” (MERCK SHARP & DOHME CORP., priority 2016, dated 2018).

Key:
[1] = molecular target: human Factor XIa (Homo sapiens (Human), UniProt P03951); experiment: Factor XIa Assay; format: biochemical; details: for IC50: human Factor XIa 0.04 nM, 30 min pre-incubation at 25° C., substrate GPR-AFC, read-out: FXIa IC50
Method in brief: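 IC50 values were obtained from four-parameter log(inhibitor)-response fits of % inhibition, then converted to Ki using Cheng-Prusoff. GPR-AFC hydrolysis was read at 400/505 nm after 60 min at 25 °C.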

[2] = test system: Human plasma (intrinsic coagulation cascade); experiment: Activated Partial Thromboplastin Time (aPTT) Assay; details: concentration that causes a 50% (1.5×) increase of clot time over vehicle
Description: Activated partial thromboplastin time (aPTT) is a clotting test that measures the intrinsic coagulation cascade. The test is performed in sodium citrated plasma. Human plasma is made by collecting blood from healthy donors of both genders into Na citrate tubes (Sarstedt coagulation 9NC/10 ml). Blood is centrifuged at 1500×g and the plasma is collected. aPTT is checked on each individual donor and those within the normal range (28-40 seconds) are pooled, aliquoted, and stored at −80 C. Test samples are prepared by spiking inhibitors or vehicle into plasma. These spiked samples are then run on a coagulation analyzer (STA-R Evolution, Stago Diagnostica). In general, the analyzer performs the following steps: Factor XII is activated by addition of ellagic acid (Pacific Hemostasis), and then time to clot is measured after re-calcification of the sample. Inhibition of FXI will cause aPTT clot time to be prolonged. The data is expressed as percent increase over vehicle control clot time and the concentration that causes a 50% (1.5×) percent increase of clot time are reported.

[3] = molecular target: Human plasma kallikrein (Homo sapiens (Human), UniProt P03952); experiment: Kallikrein Assay; format: biochemical; details: purified Human plasma kallikrein 0.5 nM, substrate Acetyl-K-P-R-AFC; read-out: P. KLK IC50
Description: The effectiveness of a compound of the present invention as an inhibitor of Kallikrein can be determined using a relevant purified serine protease, and an appropriate synthetic substrate. The rate of hydrolysis of the chromogenic or fluorogenic substrate by the relevant serine protease was measured both in the absence and presence of compounds of the present invention. Assays were conducted at room temperature or at 37° C. […] A decrease in the rate of fluorescence change in the presence of inhibitor is indicative of enzyme inhibition. Such methods are known to one skilled in the art. The results of this assay are expressed as the half-maximal inhibitory concentrations (IC50), or the inhibitory constant, Ki.
Kallikrein determinations were made in 50 mM HEPES buffer at pH 7.4 containing 150 mM NaCl, 5 mM CaCl2, and 0.1% PEG 8000 (polyethylene glycol; Fisher Scientific). Determinations were made using purified Human plasma kallikrein at a final concentration of 0.5 nM (Enzyme Research Laboratories) and the synthetic substrate, Acetyl-K-P-R-AFC (Sigma # C6608) at a concentration of […].
Times required to achieve equilibration between enzyme and inhibitor were determined in control experiments. The reactions were performed under linear progress curve conditions and fluorescence increase measured at 405 Ex/510 Em nm. […] IC50 was determined by inflection point from a four parameter logistic curve fit. Ki was calculated using the Cheng Prusoff equation, Ki=IC50/(1+([S]/Km)).

Sequence of Human plasma kallikrein (P03952 391-638): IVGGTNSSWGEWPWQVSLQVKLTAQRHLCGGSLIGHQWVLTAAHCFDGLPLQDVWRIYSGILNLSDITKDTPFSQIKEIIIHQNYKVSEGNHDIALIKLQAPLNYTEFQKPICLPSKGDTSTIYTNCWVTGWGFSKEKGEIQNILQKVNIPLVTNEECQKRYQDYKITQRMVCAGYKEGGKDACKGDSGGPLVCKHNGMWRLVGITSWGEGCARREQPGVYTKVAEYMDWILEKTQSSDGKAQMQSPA
Sequence of Human plasma kallikrein (P03952 20-390 partner): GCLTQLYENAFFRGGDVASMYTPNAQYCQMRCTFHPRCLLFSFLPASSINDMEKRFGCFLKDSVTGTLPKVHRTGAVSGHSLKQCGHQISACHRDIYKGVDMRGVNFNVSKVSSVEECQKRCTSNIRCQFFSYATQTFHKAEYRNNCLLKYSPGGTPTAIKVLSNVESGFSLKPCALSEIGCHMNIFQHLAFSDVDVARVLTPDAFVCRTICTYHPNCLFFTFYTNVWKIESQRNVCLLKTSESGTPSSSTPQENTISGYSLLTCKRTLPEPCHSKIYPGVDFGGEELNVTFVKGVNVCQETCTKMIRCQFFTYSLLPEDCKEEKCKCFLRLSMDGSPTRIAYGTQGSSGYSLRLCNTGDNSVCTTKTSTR
Sequence of human Factor XIa (P03951 388-625): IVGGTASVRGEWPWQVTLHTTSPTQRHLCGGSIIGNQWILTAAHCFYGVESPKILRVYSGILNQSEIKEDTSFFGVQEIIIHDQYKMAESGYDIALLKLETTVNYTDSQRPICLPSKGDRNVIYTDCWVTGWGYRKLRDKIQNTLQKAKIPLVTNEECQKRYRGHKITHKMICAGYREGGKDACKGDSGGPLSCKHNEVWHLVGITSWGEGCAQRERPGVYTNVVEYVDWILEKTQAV
Sequence of human Factor XIa (P03951 19-387 partner): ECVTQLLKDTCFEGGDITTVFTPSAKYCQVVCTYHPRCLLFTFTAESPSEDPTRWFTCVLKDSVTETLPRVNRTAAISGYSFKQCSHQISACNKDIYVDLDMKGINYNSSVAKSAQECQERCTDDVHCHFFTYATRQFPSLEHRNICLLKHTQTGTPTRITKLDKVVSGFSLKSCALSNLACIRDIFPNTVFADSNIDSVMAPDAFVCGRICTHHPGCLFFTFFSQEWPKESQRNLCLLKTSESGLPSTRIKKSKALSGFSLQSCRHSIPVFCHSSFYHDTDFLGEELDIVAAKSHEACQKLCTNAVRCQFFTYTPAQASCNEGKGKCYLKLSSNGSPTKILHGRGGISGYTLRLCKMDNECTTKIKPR

Row | IC50 [1] | IC50 [3] | FXIa % Inh. @ 1000 nM ([1]; @ 1000 nM compound) | Compound | aPTT (1.5x) [2]
1 | 7.6 nM | 265 nM | – | O=C(O)c1ccc(NC(=O)C(CC2CC2)c2ccc(-c3cc(Cl)ccc3OC(F)F)c[n+]2[O-])cc1 (single isomer, unassigned) [Example 7, (R)- or (S)-4-[(2-{5-[5-chloro-2-(difluoromethoxy)phenyl]-1-oxidopyridin-2-yl}-3-cyclopropylpropanoyl)amino] benzoic acid] | 16.38 µM
2 | – | 11 nM | – | COc1cc(C(CC2CC2)C(=O)Nc2ccc(C(=O)O)cc2)[n+]([O-])cc1-c1c(OC(F)F)ccc(Cl)c1F (single isomer, unassigned) [Example 71, 2-(1-((4-carboxyphenyl)amino)-3-cyclopropyl-1-oxopropan-2-yl)-5-(3-chloro-6-(difluoromethoxy)-2-fluorophenyl)-4-methoxypyridine 1-oxide] | 1.24 µM
3 | – | 3.3 nM | – | COc1cc(C(CC2CC2)C(=O)Nc2ccc(C(=O)O)cc2)[n+]([O-])cc1-c1c(OC(F)F)ccc(Cl)c1F (single isomer, unassigned) [Example 70, 2-(1-((4-carboxyphenyl)amino)-3-cyclopropyl-1-oxopropan-2-yl)-5-(3-chloro-6-(difluoromethoxy)-2-fluorophenyl)-4-methoxypyridine 1-oxide] | 0.82 µM
4 | – | 25 nM | – | O=C(O)c1ccc(NC(=O)C(CC2CCC(F)(F)CC2)c2ccc(-c3c(OC(F)F)ccc(Cl)c3F)c[n+]2[O-])cc1 (single isomer, unassigned) [Example 39] | 1.30 µM
5 | – | 47 nM | – | O=C(O)c1ccc(NC(=O)C(CC2CC(F)(F)C2)c2ccc(-c3c(OC(F)F)ccc(Cl)c3F)c[n+]2[O-])cc1 (racemic) [Example 50, (S)- and (R)-2-(1-((4-carboxyphenyl)amino)-3-(3,3-difluorocyclobutyl)-1-oxopropan-2-yl)-5-(3-chloro-6-(difluoromethoxy)-2-fluorophenyl)pyridine 1-oxide] | 1.33 µM
6 | – | 88 nM | – | O=C(O)c1ccc(NC(=O)C(CC2CC2)c2ccc(-c3c(OC(F)F)ccc(Cl)c3F)c[n+]2[O-])cc1F (single isomer, unassigned) [Example 73] | 2.15 µM
7 | – | 11.3 nM | – | CC1C(C)C1CC(C(=O)Nc1ccc(C(=O)O)cc1)c1ccc(-c2c(OC(F)F)ccc(Cl)c2F)c[n+]1[O-] (single isomer, unassigned) [Example 98, 2-(1-((4-carboxyphenyl)amino)-3-(2,3-dimethylcyclopropyl)-1-oxopropan-2-yl)-5-(3-chloro-6-(difluoromethoxy)-2-fluorophenyl)pyridine 1-oxide] | 0.72 µM
8 | – | 12 nM | – | O=C(O)c1ccc(NC(=O)C(C[C@H]2CC[C@H](O)CC2)c2ccc(-c3c(OC(F)F)ccc(Cl)c3F)c[n+]2[O-])cc1 (single isomer, unassigned) [Example 35] | 0.39 µM
9 | – | 31.8 nM | – | O=C(O)c1ccc(NC(=O)C(CC2CC(F)C2)c2ccc(-c3c(OC(F)F)ccc(Cl)c3F)c[n+]2[O-])cc1 (single isomer, unassigned) [Example 102, 2-(1-((4-carboxyphenyl)amino)-3-(3-fluorocyclobutyl)-1-oxopropan-2-yl)-5-(3-chloro-6-(difluoromethoxy)-2-fluorophenyl)pyridine 1-oxide] | 1 µM
10 | – | 14 nM | – | O=C(O)c1ccc(NC(=O)C(CC23CC(C2)C3)c2ccc(-c3c(OC(F)F)ccc(Cl)c3F)c[n+]2[O-])cc1 (single isomer, unassigned) [Example 52] | 1.17 µM
11 | – | 92 nM | – | CC1C(C)C1CC(C(=O)Nc1ccc(C(=O)O)cc1)c1ccc(-c2c(OC(F)F)ccc(Cl)c2F)c[n+]1[O-] (single isomer, unassigned) [Example 99, 2-(1-((4-carboxyphenyl)amino)-3-(2,3-dimethylcyclopropyl)-1-oxopropan-2-yl)-5-(3-chloro-6-(difluoromethoxy)-2-fluorophenyl)pyridine 1-oxide] | 2.78 µM

More lines, now with the values behind:

Row | Compound | IC50 [1] | IC50 [3] | FXIa % Inh. @ 1000 nM ([1]; @ 1000 nM compound) | aPTT (1.5x) [2]
12 | O=C(O)c1ccc(NC(=O)C(CC2CC2)c2ccc(-c3cc(Cl)ccc3C(F)(F)F)c[n+]2[O-])cc1 (single isomer, unassigned) [Example 25, (R)- or (S)-2-(1-((4-carboxyphenyl)amino)-3-cyclopropyl-1-oxopropan-2-yl)-5-(5-chloro-2-(trifluoromethyl)phenyl)pyridine 1-oxide] | 16 nM | 756 nM | – | 10.28 µM
13 | O=C(O)c1ccc(NC(=O)C(CC2CC2F)c2ccc(-c3c(C(F)F)ccc(Cl)c3F)c[n+]2[O-])cc1 (single isomer, unassigned) [Example 93, 2-(1-((4-carboxyphenyl)amino)-3-(2-fluorocyclopropyl)-1-oxopropan-2-yl)-5-(3-chloro-6-(difluoromethyl)-2-fluorophenyl)pyridine-1-oxide] | 3.3 nM | 28 nM | – | 0.8 µM
14 | CC1CC1C[C@@H](C(=O)Nc1ccc(C(=O)O)cc1)c1ccc(-c2c(C(F)(F)F)ccc(Cl)c2F)c[n+]1[O-] (single isomer, unassigned) [Example 65] | – | 51 nM | – | 1.86 µM
15 | O=C(O)c1ccc(NC(=O)C(CC2CC2)c2ccc(-c3c(C(F)F)ccc(Cl)c3F)c[n+]2[O-])cc1F (single isomer, unassigned) [Example 118, 2-(1-((4-carboxy-3-fluorophenyl)amino)-3-cyclopropyl-1-oxopropan-2-yl)-5-(3-chloro-6-(difluoromethyl)-2-fluorophenyl)pyridine 1-oxide] | – | 14.6 nM | – | 0.66 µM
16 | O=C(O)c1ccc(NC(=O)C(CC23CC(C2)C3)c2ccc(-c3c(C(F)F)ccc(Cl)c3F)c[n+]2[O-])cc1F (single isomer, unassigned) [Example 124, 2-(3-(bicyclo[1.1.1]pentan-1-yl)-1-((4-carboxy-3-fluorophenyl)amino)-1-oxopropan-2-yl)-5-(3-chloro-6-(difluoromethyl)-2-fluorophenyl)pyridine 1-oxide] | – | 4.7 nM | – | 1.76 µM
17 | O=C(O)c1ccc(NC(=O)C(CC2CC2C(F)(F)F)c2ccc(-c3c(C(F)F)ccc(Cl)c3F)c[n+]2[O-])cc1 (single isomer, unassigned) [Example 88, 2-(1-((4-carboxyphenyl)amino)-1-oxo-3-(2-(trifluoromethyl)cyclo-propyl)propan-2-yl)-5-(3-chloro-6-(difluoromethyl)-2-fluorophenyl)pyridine 1-oxide] | – | 3.6 nM | – | 1.43 µM
18 | COC(=O)c1ccc(NC(=O)C(CC2CC2)c2ccc(-c3c(C(F)F)ccc(Cl)c3F)c[n+]2[O-])cc1 (single isomer, unassigned) [Example 114, 5-(3-chloro-6-(difluoromethyl)-2-fluorophenyl)-2-(3-cyclopropyl-1-((4-(methoxycarbonyl)phenyl)amino)-1-oxopropan-2-yl)pyridine 1-oxide] | 1000 nM | 201 nM | 45% | –
19 | O=C(O)c1ccc(NC(=O)C(CC2CCC2)c2ccc(-c3c(C(F)F)ccc(Cl)c3F)c[n+]2[O-])cc1F (single isomer, unassigned) [Example 120, 2-(1-((4-carboxy-3-fluorophenyl)amino)-3-cyclobutyl-1-oxopropan-2-yl)-5-(3-chloro-6-(difluoromethyl)-2-fluorophenyl)pyridine 1-oxide] | – | 2.1 nM | – | 0.75 µM
20 | O=C(O)c1ccc(NC(=O)C(CC2CC2C(F)(F)F)c2ccc(-c3c(C(F)F)ccc(Cl)c3F)c[n+]2[O-])cc1 (single isomer, unassigned) [Example 87, 2-(1-((4-carboxyphenyl)amino)-1-oxo-3-(2-(trifluoromethyl)cyclopropyl)propan-2-yl)-5-(3-chloro-6-(difluoromethyl)-2-fluorophenyl)pyridine 1-oxide] | – | 2.7 nM | – | 0.92 µM
